Measurements published in US20060069124A1 (priority 2004, published 2006).

Assays:
human eosinophils [1] = assay: Chemoattractant-induced migration of eosinophils; format: cell-based; details: for migration of human eosinophils induced by chemoattractant: C5a 10^−7 M positive control, eotaxin 50 nM on untreated eosinophils, FIG. 1, FIG. 3
Protocol: Eosinophil Isolation: Eosinophils were purified from the peripheral blood of allergic donors (Boehme, et al. J. Immunol. 163:1611 (1999)).
(§1) Culture medium alone or medium containing 5-HT (100 nM) or eotaxin (50 nM) was added to the lower chamber. In certain experiments 5-HT was added to only upper or both upper and lower chambers and incubated at 37° C. for 4 h after which the chambers were removed and the number of migrated cells was quantitated and expressed as a % of total cells added to the well.

neutrophils = assay: Chemoattractant-induced chemotaxis of neutrophils; format: cell-based; details: C5a 10^−7 M positive control; FIG. 1
OVA-challenged mice [2] = assay: Eosinophil counts in BAL fluid in murine model of allergic airway inflammation; format: in vivo, BALB/c mice; details: 0.5 mg/kg body weight i.p.; versus OVA-challenged mice without compound; FIG. 7
Protocol: Murine model of allergic airway inflammation: Pulmonary eosinophilia was induced in female BALB/c mice. In brief, mice were sensitized by two i.p. injections with 50 μg ovalbumin (OVA) in 200 μl alum (Pierce). Non-sensitized mice received 200 μl of alum alone. […] Fifteen minutes after injection of the inhibitor, mice were exposed to three inhalations (30 min each) of aerosolized OVA (10 mg/ml in 0.9% sterile saline) at 1 h intervals. Non-sensitized mice received an i.p. injection of vehicle and aerosol challenge of saline only. One hour after the last aero-allergen challenge, mice were assessed for airway hyperreactivity/responsiveness (AHR) as described below and subsequently sacrificed and processed for BAL fluid collection to determine eosinophil counts (Broide, et al. Am. J. Respir. Cell Mol. Biol. 18:218 (1998)). […] BALB/c mice were immunized intraperitoneally (i.p.) with alum alone (control), 50 μg OVA in alum and boosted 12 days later with an additional dose of OVA (50 μg). […] Fifteen minutes later, mice were challenged with either nebulized OVA (10 mg/ml) or PBS (challenge control) for 30 min. […] Three hours after the last challenge, AHR was measured in unrestrained mice using BUXCO plethysmography. […] The percentage of the total cells that were eosinophils was quantitated. […] No eosinophils were detected (n.d.) in the BAL fluid of control mice.

human eosinophils [3] = assay: Transwell chamber chemotaxis assay: eotaxin-induced eosinophil migration; format: cell-based; details: MDL-100,907 20 μM; eotaxin 50 nM; FIG. 3
Protocol: as §1, with “Eosinophil Isolation: Eosinophils were purified from the peripheral blood of allergic donors (Boehme, et al. J. Immunol. 163:1611 (1999)). […] Culture” for “Culture”, “well. […] Neuropsychopharmacology 15:116 (1996)), on 5-HT mediated eosinophil chemotaxis was investigated in vitro (FIG. 3).” for “well.”

human eosinophils [4] = assay: Transwell chamber chemotaxis assay: inhibition of 5-HT-induced eosinophil chemotaxis; format: cell-based; details: 5-HT 100 nM
Protocol: as §1, with “Eosinophil Isolation: Eosinophils were purified from the peripheral blood of allergic donors (Boehme, et al. J. Immunol. 163:1611 (1999)). […] Culture” for “Culture”, “well. […] Neuropsychopharmacology 15:116 (1996)), on 5-HT mediated eosinophil chemotaxis was investigated in vitro (FIG. 3).” for “well.”

OVA-challenged mice [5] = assay: AHR to methacholine in murine model of allergic airway inflammation; format: in vivo, BALB/c mice; details: 0.5 mg/kg body weight i.p., 15 min before OVA aerosol challenge; versus OVA-challenged mice without antagonist; FIG. 6
Protocol: Murine model of allergic airway inflammation: Pulmonary eosinophilia was induced in female BALB/c mice. In brief, mice were sensitized by two i.p. injections with 50 μg ovalbumin (OVA) in 200 μl alum (Pierce). Non-sensitized mice received 200 μl of alum alone. […] Fifteen minutes after injection of the inhibitor, mice were exposed to three inhalations (30 min each) of aerosolized OVA (10 mg/ml in 0.9% sterile saline) at 1 h intervals. Non-sensitized mice received an i.p. injection of vehicle and aerosol challenge of saline only. One hour after the last aero-allergen challenge, mice were assessed for airway hyperreactivity/responsiveness (AHR) as described below and subsequently sacrificed and processed for BAL fluid collection to determine eosinophil counts (Broide, et al. Am. J. Respir. Cell Mol. Biol. 18:218 (1998)). Determination of AHR to methacholine: AHR was assessed after completion of the final OVA inhalation challenges, immediately before the mice were sacrificed using a single chamber whole body plethysmograph obtained from Buxco (Troy, N.Y.), as previously described (Broide, et al. Am. J. Physiol. Lung Cell Mol Physiol. 282:[…] (2002)). In this system, an unrestrained, spontaneously breathing mouse is placed into the main chamber of the plethysmograph, and pressure differences between this chamber and a reference chamber are recorded. […]

[6] = tested on: adrenergic alpha-1 receptors; details: cited from earlier work
[7] = tested on: muscarinic cholinergic receptors; details: cited from earlier work
dopamine D-2 receptors = dopamine D-2 receptors (Homo sapiens, UniProt P14416); details: cited from earlier work
Sequence of dopamine D-2 receptors (P14416 whole entry): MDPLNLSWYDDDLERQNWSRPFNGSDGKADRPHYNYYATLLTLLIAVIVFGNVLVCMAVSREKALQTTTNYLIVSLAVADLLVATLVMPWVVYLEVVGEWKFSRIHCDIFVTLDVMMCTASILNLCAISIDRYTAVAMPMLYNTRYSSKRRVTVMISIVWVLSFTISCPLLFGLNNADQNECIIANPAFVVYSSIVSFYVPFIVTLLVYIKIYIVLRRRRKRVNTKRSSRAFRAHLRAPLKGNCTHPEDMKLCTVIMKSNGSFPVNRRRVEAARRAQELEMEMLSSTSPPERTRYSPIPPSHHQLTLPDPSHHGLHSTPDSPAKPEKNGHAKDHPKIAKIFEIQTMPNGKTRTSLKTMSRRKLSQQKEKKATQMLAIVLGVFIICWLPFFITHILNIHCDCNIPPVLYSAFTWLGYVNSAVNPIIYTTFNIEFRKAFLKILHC

5HT1 receptors = details: cited from earlier work

Molecule: NCCc1c[nH]c2ccc(O)cc12 [5-HT, Serotonin]
- concentration at which induced eosinophil migration was maximal (human eosinophils [1]; 5-HT alone, dose-dependent): 10^−6 molar (M)
- migration of human eosinophils induced by chemoattractant (human eosinophils [1]; 5-HT alone): induce migration of human eosinophils in a dose-dependent manner
- nature of induced migration (chemotactic or chemokinetic) (human eosinophils [1]; 5-HT in upper or both chambers, FIG. 2): directed chemotactic response and not chemokinetic
- chemotaxis of neutrophils induced by chemoattractant (neutrophils): did not induce chemotaxis of neutrophils

Molecule: COc1cccc([C@H](O)C2CCN(CCc3ccc(F)cc3)CC2)c1OC [MDL-100,907, R-(+)-α-(2,3-dimethoxyphenyl)-1-[2-(4-fluorophenyl)ethyl]-4-piperidine methanol]
- number of eosinophils present in the BAL fluid (OVA-challenged mice [2]): inhibited the number of eosinophils
- migratory response to eotaxin of treated eosinophils (human eosinophils [3]): robust migratory response
- chemotactic response to 5-HT (human eosinophils [4]; MDL-100,907 20 μM, versus untreated eosinophils, FIG. 3): significantly reduced chemotactic response
- inhibition of eosinophil chemotaxis to 5-HT (human eosinophils [4]; all ranges from 0.1 μM to 100 μM, FIG. 5): Robust inhibition of eosinophil chemotaxis
- AHR (airway hyperresponsiveness), BUXCO plethysmography (OVA-challenged mice [5]): markedly reduced AHR
- activity at adrenergic alpha-1 receptors [6]: little detectable activity
- activity at muscarinic cholinergic receptors [7]: little detectable activity
- activity at dopamine D-2 receptors (dopamine D-2 receptors): little detectable activity
- activity at 5HT1 receptors (5HT1 receptors): little detectable activity

Molecule: eotaxin: chemokine, eosinophil chemoattractant
- migration of human eosinophils induced by chemoattractant (human eosinophils [1]; 5-HT alone): robust migratory response

B1: C5a: positive control chemoattractant for eosinophils and neutrophils (protein, UniProt P01031 678-751, looked up)
C5a anaphylatoxin: TLQKKIEEIAAKYKHSVVKKCCYDGACVNNDETCEQRAARISLGPRCIKAFTECCVVASQLRANISHKDMQLGR
modifications: C5a anaphylatoxin
notes: positive control chemoattractant for eosinophils and neutrophils
- migration of human eosinophils induced by chemoattractant (human eosinophils [1]; 5-HT alone): induce migration of both eosinophils and neutrophils
- chemotaxis of neutrophils induced by chemoattractant (neutrophils): induce migration of both eosinophils and neutrophils
